In a compilation of properties of binary mixtures (doi:10.1524/zpch.2013.0326):

Assay: xn = mol fraction of the nth substance listed
Conditions: 101 kPa

Cc1ccccc1 + CCCCCCCC[n+]1ccc2ccccc2c1.O=S(=O)([N-]S(=O)(=O)C(F)(F)F)C(F)(F)F
x1 = 1
Conditions | viscosity [mPa·s]
298.15 K | 0.56
318.15 K | 0.45
328.15 K | 0.4
338.15 K | 0.37
348.15 K | 0.33

c1ccccc1 + CCCCCCCC[n+]1ccc2ccccc2c1.O=S(=O)([N-]S(=O)(=O)C(F)(F)F)C(F)(F)F
x1 = 1
Conditions | viscosity [mPa·s]
298.15 K | 0.6
318.15 K | 0.47
338.15 K | 0.37
348.15 K | 0.34

c1ccncc1 + CCCCCCCC[n+]1ccc2ccccc2c1.O=S(=O)([N-]S(=O)(=O)C(F)(F)F)C(F)(F)F
x1 = 1
Conditions | viscosity [mPa·s]
218.15 K | 0.67
298.15 K | 0.89
308.15 K | 0.76
328.15 K | 0.59
348.15 K | 0.52

c1ccsc1 + CCCCCCCC[n+]1ccc2ccccc2c1.O=S(=O)([N-]S(=O)(=O)C(F)(F)F)C(F)(F)F
x1 = 1
Conditions | viscosity [mPa·s]
298.15 K | 0.62
308.15 K | 0.54
318.15 K | 0.48
328.15 K | 0.42
338.15 K | 0.38

CCCCCCCC[n+]1ccc2ccccc2c1.O=S(=O)([N-]S(=O)(=O)C(F)(F)F)C(F)(F)F + Cc1ccccc1
viscosity [mPa·s]
Conditions | 298.15 K | 308.15 K | 318.15 K | 328.15 K | 338.15 K | 348.15 K
x2 = 0 | 369 | 191 | 108.7 | 67.9 | – | 31.62
x2 = 0.0818 | – | – | 94.1 | 58.9 | 39.34 | 27.64
x2 = 0.1949 | 200 | 111.3 | – | 43.52 | 29.87 | 21.41
x2 = 0.2746 | 143.3 | – | 50.3 | 33.2 | 23.14 | 16.87
x2 = 0.3638 | 96.8 | 58.2 | 37.73 | – | 18.51 | 13.76
x2 = 0.4295 | 67.4 | – | 27.64 | – | 14.19 | 10.81
x2 = 0.4775 | – | – | 22.12 | 15.77 | – | 9
x2 = 0.4902 | – | 31.17 | 21.24 | 15.26 | 11.43 | 8.83
x2 = 0.5467 | 35.44 | 23.45 | 16.48 | – | 9.23 | 7.21
x2 = 0.6148 | 22.18 | 15.4 | – | 8.46 | 6.59 | 5.28
x2 = 0.7004 | 12.67 | 9.25 | 7.03 | – | 4.44 | 3.65
x2 = 0.7634 | 7.73 | 5.89 | 4.64 | 3.76 | 3.11 | 2.62
x2 = 0.8672 | 3.2 | 2.62 | – | 1.88 | 1.65 | 1.48

CCCCCCCC[n+]1ccc2ccccc2c1.O=S(=O)([N-]S(=O)(=O)C(F)(F)F)C(F)(F)F + c1ccccc1
viscosity [mPa·s]
Conditions | 298.15 K | 308.15 K | 318.15 K | 328.15 K | 338.15 K | 348.15 K
x2 = 0 | – | 191 | – | 67.9 | 44.8 | 31.62
x2 = 0.0912 | 301 | 158.8 | 92 | 57.6 | 38.53 | 27.1
x2 = 0.1505 | 249 | 134.2 | 79.2 | – | 34.07 | 24.21
x2 = 0.295 | 150.9 | 85.5 | 52.8 | 34.86 | 24.3 | 17.61
x2 = 0.332 | 133.1 | 76.4 | – | – | 22.32 | –
x2 = 0.4679 | – | – | 26.93 | 18.76 | 13.7 | 10.41
x2 = 0.5663 | 37.49 | 24.56 | – | 12.25 | 9.21 | 7.15
x2 = 0.654 | 21.25 | 14.55 | 10.5 | 7.91 | 6.15 | –
x2 = 0.673 | – | 7.96 | 6.05 | – | – | 3.15
x2 = 0.7443 | – | 4.55 | 3.6 | 2.94 | 2.46 | 2.11
x2 = 0.8143 | 2.78 | 2.28 | 1.92 | 1.66 | – | 1.34
x2 = 0.8961 | 0.96 | 0.83 | 0.74 | 0.65 | 0.59 | –

CCCCCCCC[n+]1ccc2ccccc2c1.O=S(=O)([N-]S(=O)(=O)C(F)(F)F)C(F)(F)F + c1ccncc1
viscosity [mPa·s]
Conditions | 298.15 K | 308.15 K | 328.15 K | 338.15 K | 348.15 K
x2 = 0 | 369 | 191 | – | 44.8 | 31.62
x2 = 0.0945 | 292 | – | 57 | – | –
x2 = 0.1869 | 205 | 113.6 | 44.5 | 30.56 | 21.19
x2 = 0.2762 | 141.5 | 81.4 | 34.07 | 23.96 | 17.53
x2 = 0.3675 | 89.1 | 53.9 | 24.08 | 17.44 | 13.12
x2 = 0.4584 | 56.5 | 35.87 | 17.33 | 12.94 | 10.01
x2 = 0.5383 | 42.09 | 27.64 | 14.12 | – | 8.48
x2 = 0.637 | 19.55 | 13.92 | 8.02 | 6.34 | 5.11
x2 = 0.7274 | 10.36 | 7.76 | – | 3.95 | 3.3
x2 = 0.8199 | 6.68 | – | 3.64 | – | 2.67
x2 = 0.9064 | 3.11 | 2.6 | 1.92 | 1.68 | 1.49

CCCCCCCC[n+]1ccc2ccccc2c1.O=S(=O)([N-]S(=O)(=O)C(F)(F)F)C(F)(F)F + c1ccsc1
viscosity [mPa·s]
Conditions | 298.15 K | 308.15 K | 318.15 K | 328.15 K | 338.15 K | 348.15 K
x2 = 0 | 369 | 191 | – | 67.9 | 44.8 | 31.62
x2 = 0.0964 | 300 | – | – | 57.9 | 38.71 | 27.2
x2 = 0.1907 | 215 | 118 | 70.9 | 45.7 | 33.3 | 22.4
x2 = 0.2739 | 155.2 | 88.3 | – | 36.23 | 25.31 | 18.35
x2 = 0.3572 | 112.1 | 66.1 | 42.17 | 28.66 | – | 15.04
x2 = 0.4456 | 72.5 | 44.61 | 29.44 | 20.52 | 14.97 | –
x2 = 0.542 | – | – | 19.21 | 13.96 | 10.53 | 8.22
x2 = 0.6385 | 23.26 | – | 11.79 | 8.96 | 6.98 | 5.57
x2 = 0.7244 | 12.82 | 9.45 | 7.2 | 5.63 | 4.53 | 3.73
x2 = 0.821 | – | – | 4.88 | 4.03 | 3.4 | 2.91
x2 = 0.8627 | 5.27 | 4.26 | 3.53 | 2.98 | 2.55 | 2.22
x2 = 0.9065 | 3.34 | – | – | 2.04 | 1.78 | 1.57
x2 = 0.935 | 2.38 | 2.01 | 1.73 | 1.51 | 1.34 | 1.25
